Experimental data: patent publication US20200315241A1 (Nude Nicotine, Inc., priority 2017, published 2020)
Like-named read-outs stand apart in the source and are kept apart here.

How the values were obtained:
[1] = cited from earlier work
[2] = free-base nicotine; depending on concentration; cited from earlier work
[3] = nicotine salt complex
respiratory tract = conditions: user perception, nicotine citrate compared with nicotine hexanoate
[4] = Table 7, nicotine salt (organic acid)
[5] = Table 7, nicotine salt (organic acid), second value
[6] = Table 5, organic acid, second value
[7] = Table 7, nicotine salt (organic acid), third value printed in the cell

Molecule | pKa [1, 4] | further results
Nicotine glutarate | 4.34 | 
CN1CCCC1c1cccnc1 (centres unmarked) [nicotine] |  | pH [2]: ~10
Nicotine phthalate | 2.76 | pKa [1, 5]: 4.92
Nicotine levulinate | 4.64 | pKa [1]: 4.64
CN1CCCC1c1cccnc1.N[C@@H](Cc1ccccc1)C(=O)O (centres unmarked) [Nicotine phenylalanate] | 1.83 | 
Nicotine acetoacetate | 3.58 | 
Nicotine 3-hydroxyglutarate | 3.52 | 
Nicotine hexanoate | 4.88 | 
C#CC(=O)O.CN1CCCC1c1cccnc1 (centres unmarked) [Nicotine propiolate] | 1.84 | 
Nicotine valinate | 2.32 | 
Nicotine asparaginate | 2.02 | 
CC(=O)O.CN1CCCC1c1cccnc1 (centres unmarked) [Nicotine acetate] |  | pH [3]: ~6.5
CN1CCCC1c1cccnc1.C[C@H](N)C(=O)O (centres unmarked) [Nicotine alanate] | 2.34 | 
Nicotine valerate | 4.84 | 
Oxalic Acid |  | pKa ([1]; Table 5, organic acid): 1.46; pKa [1, 6]: 4.40
Nicotine gluconate | 3.86 | 
Nicotine 4-hydroxybenzoate | 4.54 | 
Nicotine 2-hydroxyisocaproate | 4.26 | 
CN1CCCC1c1cccnc1.O=C(O)c1cc(C(=O)O)cc(C(=O)O)c1 [Nicotine trimesate] | 3.12 | pKa [1, 5]: 3.89; pKa [1, 7]: 4.70
CN1CCCC1c1cccnc1.O=C(O)CC(C(=O)O)C(O)C(=O)O (centres unmarked) [Nicotine isocitrate] | 3.29 | pKa [1, 5]: 4.71; pKa [1, 7]: 6.40
Nicotine cinnamate | 4.44 | 

Molecule | pKa [1, 4] | further results
Nicotine lysinate | 2.18 | 
CN1CCCC1c1cccnc1.O=C(O)C=C(CC(=O)O)C(=O)O (stereo not drawn) [Nicotine cis-aconitate] | 1.95 | 
Nicotine methioninate | 2.28 | 
Nicotine cysteinate | 1.96 | 
CC(=O)C(=O)O [Pyruvic Acid] |  | pKa ([1]; Table 5, organic acid): 2.50
CN1CCCC1c1cccnc1.O=C(O)C=C(CC(=O)O)C(=O)O (stereo not drawn) [Nicotine trans-aconitate] | 2.80 | pKa [1, 5]: 4.46
O=C(O)C[C@H](C(=O)O)[C@@H](O)C(=O)O [Isocitric Acid] |  | pKa ([1]; Table 5, organic acid): 3.29; pKa [1, 6]: 4.71; pKa ([1]; Table 5, organic acid, third value printed in the cell): 6.40
O=C(O)/C=C(/CC(=O)O)C(=O)O [cis-Aconitic Acid] |  | pKa ([1]; Table 5, organic acid): 1.95
Nicotine pyruvate | 2.50 | 
CN1CCCC1c1cccnc1.O=C(O)CC(O)(CC(=O)O)C(=O)O [Nicotine citrate] |  | throat hit / sensation in the respiratory tract (respiratory tract): stronger throat hit
O=C(O)CC(O)C(=O)O (centres unmarked) [Malic Acid] |  | pKa ([1]; Table 5, organic acid): 3.51; pKa [1, 6]: 5.03; pKa1 ([1]; pH for binding of second carboxylic acid group): 5.03
CN1CCCC1c1cccnc1.NCC(=O)O (centres unmarked) [Nicotine glycinate] | 2.34 | 
Nicotine isocaproate | 5.09 | 
CN1CCCC1c1cccnc1.O=C(O)C(=O)O.O=C(O)CC(O)C(=O)O (centres unmarked) [Nicotine N-malate-N′-oxalate] |  | pH [3]: ~5.5
CC(=O)CC(=O)O [3-Oxobutanoic Acid (Acetoacetic Acid), 3-Oxobutanoic Acid] |  | pKa ([1]; Table 5, organic acid): 3.58
CCC(=O)O.CN1CCCC1c1cccnc1 (centres unmarked) [Nicotine propionate] |  | pH [3]: ~6.5
Nicotine tryptophanate | 2.83 | 
CN1CCCC1c1cccnc1.O=C(O)CC(O)C(=O)O (centres unmarked) [Nicotine malate] |  | pH [3]: around 6.5
Nicotine vanillate | 4.51 | 
Nicotine acetylsalicylate | 3.49 | 
